Reference: patent publication US9555023B2, “Pharmaceutical salts and polymorphs of a factor Xa inhibitor” (Millennium Pharmaceuticals, Inc., priority 2005, dated 2017)
Where two headings read alike, the source gives them in different places.

Columns and labels:
[1] = Stability: hydrolyzed amidine content by HPLC after 57° C. / 75% humidity; format: physicochemical; conditions: for Hydrolyzed Amidine Content (3 days) / Hydrolyzed Amidine Content (6 days) / Hydrolyzed Amidine Content (10 days): 57° C., 75% room humidity, percentage of the main peak
Experimental: To assess the thermal and hydrolytic stability of the salt, tests known to those of skill in the art are performed.
The sample solvent was methanol and a mobile phase modifier of 0.1% trifluoroacetic acid was employed. Data were collected after 3, 6 and 10 days except data for the propionate was collected at 0, 3, and 8 days. […] All other impurity peaks were disregarded in the calculation

[2] = Secondary screen: crystallinity (XRPD); format: physicochemical; conditions: for Crystallinity: secondary screen, Table 5
Experimental: X-Ray Powder Diffraction patterns were collected on a Siemens D5000 diffractometer using CuKα radiation (40 kV, 40 mA), […], automatic divergence and receiving slits, a graphite secondary monochromator and a scintillation counter.
Samples run under ambient conditions were prepared as flat plate specimens using powder. Approximately 35 mg of the sample was gently packed into a cavity cut into polished, zero-background (510) silicon wafer. The sample was rotated in its own plane during analysis. The details of the data collection are given for the method in Table 2 below: […]

[3] = Primary salt screen (purity, crystallinity and stability of precipitated salts); conditions: 20 mg free base in 10% (aq.) THF, 1.1 eq. acid in ethanol, tert-butyl methyl ether to induce precipitation
Experimental: To 20 mg of the free base in 3 mL of 10% (aq.) THF mixture was added 1.1 eq. of the acid in 1 mL ethanol. The mixture was shaken for 2 hours, followed by the addition of 2 mL of tert-butyl methyl ether in order to induce precipitation and shaken for another 2 hours. The samples were then filtered, dried and then analyzed to judge their purity, crystallinity and stability.

[4] = Log P determination by potentiometric titration (Sirius GlpKa); format: physicochemical; conditions: Octanol:ISA water
Excerpt: This was by potentiometric titration on a Sirius GlpKa instrument using three ratios of Octanol:ISA water to generate Log P, Log Pion, and Log D values. The data was refined using Refinement Pro software version 1.0. Predictions of Log P were made using ACD Ver. 8.08 and Syracuse KNOWWIN Ver. 1.67 software.

[5] = Solubility in water by HPLC; format: physicochemical
Experimental: This was measured by suspending enough salt in 0.25 mL of solvent (water) to give a maximum final concentration of ≧10 mg/mL of the parent free form of the salt. The suspension was equilibrated at 25° C. for 24 hr followed by a pH check and filtration through a glass fibre C 96 well plate. The filtrate was then diluted down 101×. Quantitation was by HPLC with reference to a standard dissolved in DMSO at approx 0.1 mg/mL. Different volumes of the standard, diluted and undiluted tests were injected. […] If there was sufficient solid in the filter plate the XRPD was normally checked for phase changes, hydrate formation, amorphization, crystallization, etc.

[6] = Gravimetric vapour sorption (GVS) water sorption; format: physicochemical; conditions: GVS isotherm, XRPD post GVS
Experimental: All samples were run on a Hiden IGASorp moisture sorption analyzer running CFRSorp software. Sample sizes were typically 10 mg. A moisture adsorption desorption isotherm was performed as outlined below (2 scans giving 1 complete cycle). All samples were loaded/unloaded at typical room humidity and temperature (40% RH, 25° C.). All samples were analyzed by XRPD post GVS analysis. The standard isotherm was performed at 25° C. at 10% RH intervals over a 0-90% RH range.

factor Xa = factor Xa (Homo sapiens, UniProt P00742); conditions: cited from earlier work
Sequence of factor Xa (P00742 235-488 limits assumed): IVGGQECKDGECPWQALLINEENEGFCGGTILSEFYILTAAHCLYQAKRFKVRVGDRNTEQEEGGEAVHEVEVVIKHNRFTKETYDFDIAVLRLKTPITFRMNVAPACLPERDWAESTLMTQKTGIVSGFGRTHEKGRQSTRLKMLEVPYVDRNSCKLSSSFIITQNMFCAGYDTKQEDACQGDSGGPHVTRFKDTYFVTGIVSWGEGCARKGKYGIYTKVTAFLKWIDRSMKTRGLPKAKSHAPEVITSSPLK
Sequence of factor Xa (P00742 41-179 partner limits assumed): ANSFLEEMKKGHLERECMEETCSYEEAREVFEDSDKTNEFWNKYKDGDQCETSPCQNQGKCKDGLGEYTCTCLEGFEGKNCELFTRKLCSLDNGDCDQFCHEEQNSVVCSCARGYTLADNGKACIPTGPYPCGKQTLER

Molecule: CC(=O)O [Acetate]
- thermal and hydrolytic stability (in words) [1]: did not possess good thermal and hydrolytic stability
- Hydrolyzed Amidine Content (3 days) [1]: 0.62-1.11%
- Hydrolyzed Amidine Content (6 days) [1]: 2.30-3.56%
- Hydrolyzed Amidine Content (10 days) [1]: 3.61-7.90%
- crystallinity (in words) [2]: good crystallinity
- Crystallinity [2]: crystalline

Molecule: Cl [Hydrochloric]
- Salt (primary screen grade: purity, crystallinity and stability) [3]: +++
- Crystallinity [2]: amorphous

Molecule: COc1ccc(NC(=O)c2ccc(C(=N)N(C)C)cc2)c(C(=O)Nc2ccc(Cl)cn2)c1 [Maleate]
- Measured LogPion [4]: −0.08
- logD ([4]; read-out: Measured LogD): 0.09
- logP ([4]; read-out: Measured LogP): 3.09
- solubility at 24 h ([5]; thermodynamic from solid, water, 25° C., 24 hr, as parent free form): 2050 to 2270 µg/mL
- moisture stability [6]: excellent moisture stability
- thermal and hydrolytic stability (in words) ([1]; listed as maleate salt): best stability observed
- thermal and hydrolytic stability (in words) ([1]; listed as maleate salt of Formula II): excellent

Molecule: O=C(O)CC(=O)O [Malonic]
- Salt (primary screen grade: purity, crystallinity and stability) [3]: −

Molecule: O=S(=O)(O)c1cccc2c(S(=O)(=O)O)cccc12 [Naphthalene-1,5-disulfonic]
- Salt (primary screen grade: purity, crystallinity and stability) [3]: +

Molecule: O=C(O)CCC(=O)O [Succinic]
- Salt (primary screen grade: purity, crystallinity and stability) [3]: +++
- Crystallinity [2]: amorphous

Molecule: COc1ccc(NC(=O)c2ccc(C(=N)N(C)C)cc2)c(C(=O)Nc2ccc(Cl)cn2)c1 [compound of Formula I]
- factor Xa inhibition (in words) (factor Xa): potent factor Xa inhibitor
- solubility (in words) [5]: did not exhibit optimum solubility

Molecule: Adipic
- Salt (primary screen grade: purity, crystallinity and stability) [3]: ++

Molecule: Propionic
- Salt (primary screen grade: purity, crystallinity and stability) [3]: +++
- Hydrolyzed Amidine Content (3 days) [1]: 2.22%
- Hydrolyzed Amidine Content (6 days) [1]: 2.97%
- Hydrolyzed Amidine Content (10 days) [1]: 1.71%
- Crystallinity [2]: crystalline
